Values of other authors in US20070135390A1, “Phosphate derivatives” (priority 2003, published 2007).

Details: printed as in vitro use

Substance: Phenol, 2,6-bis(1-methylethyl)-, dihydrogen phosphate (9CI) [propofol phosphate]
- induction of anesthesia: does not however induce anesthesia
